Source: patent USRE47689E1, “Compounds for treating spinal muscular atrophy” (PTC Therapeutics, Inc., priority 2011, dated 2019)
Like-named read-outs stand apart in the source and are kept apart here.

How the values were obtained:
[1] = test system: SMN2 minigene (full length SMN2 minigene mRNA containing SMN2 exon 7); test: SMN2 minigene mRNA splicing RT-qPCR assay in cultured cells; assay type: cell-based, human; conditions: Homo sapiens, HEK293-H, read-out: EC1.5x for production of full length SMN2 mRNA
In short: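 Read-out: full-length (exon 7-included) SMN2 minigene mRNA by multiplex RT-qPCR with GAPDH, efficiency-corrected (1+E)^−Ct, GAPDH-normalized and divided by vehicle. Stably transfected HEK293H cells, 24 h compound exposure, duplicates per concentration. Value is EC1.5x, reported as star ranges.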

Smn protein = Smn protein assay in cultured cells (SMN HTRF); assay type: cell-based, human; conditions: for EC1.5x (concentration giving 1.5-fold Smn protein increase): read-out: EC1.5x for Smn protein expression
In short: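 Lysates in RIPA with protease inhibitors are incubated overnight at room temperature with HTRF anti-SMN antibodies. EC1.5x is derived from fold increase in ΔF over vehicle.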

[2] = HEK293H cells stably transfected with SMN2-A minigene, 24 hours, 7-point concentration curve, 1.5-fold relative to vehicle-treated cells
[3] = SMA Type 1 patient fibroblast cells (GM03813), 48 hours, 7-point concentration curve, SMN HTRF, concentration producing 1.5 times Smn protein vs DMSO vehicle control
[4] = SMA patient fibroblast cells, 48 hours, 7-point concentration data, fold increase relative to vehicle control (SMN HTRF)

| SMILES | melting point | EC (1.5-fold) [1, 2] [µM] | EC1.5x (concentration giving 1.5-fold Smn protein increase) (Smn protein; [3]) [nM] | maximum fold (Fold) increase of Smn protein (Smn protein; [4]) | EC (1.5-fold) ([1]; 24 h) [µM] | maximum fold (Fold) increase of Smn protein (Smn protein) | EC1.5x (concentration giving 1.5-fold Smn protein increase) (Smn protein) [nM] |
| --- | --- | --- | --- | --- | --- | --- | --- |
| Cc1cn2cc(-c3cc4ccc(CCCNC(CO)CO)cc4oc3=O)nc2c(C)n1 [Compound 882, 7-{3-[(1,3-dihydroxypropan-2-yl)amino]propyl}-3-(6,8-dimethylimidazo[1,2-a]pyrazin-2-yl)-2H-chromen-2-one] | 195 to 199 °C | < 0.1 | < 300 | **** (fold increase between >1.5 and ≤1.65) |  |  |  |
| CCN1CCN(c2ccc3cc(-c4cc5c(C)nc(C)cn5c4)c(=O)oc3c2)C[C@@H]1C [Compound 694, 3-(1,3-dimethylpyrrolo[1,2-a]pyrazin-7-yl)-7-[(3S)-4-ethyl-3-methylpiperazin-1-yl]-2H-chromen-2-one] | 173 to 175 °C | < 0.1 | < 300 | **** (fold increase between >1.5 and ≤1.65) |  |  |  |
| CCN1CCC(F)(c2ccc3cc(-c4cn5cc(C)nc(C)c5n4)c(=O)oc3c2)CC1 [Cpd 958, 3-(6,8-dimethylimidazo[1,2-a]pyrazin-2-yl)-7-(1-ethyl-4-fluoropiperidin-4-yl)-2H-chromen-2-one] | 162 to 164 °C |  |  |  | < 0.1 | ***** (key: *: maximum fold increase of ≤1.2; **: fold increase between >1.2 and ≤1.35; ***: fold increase between >1.35 and ≤1.5; ****: fold increase between >1.5 and ≤1.65; *****: fold increase >1.65) | < 300 |
| O=c1oc2cc(N3CCN4CCC3CC4)ccc2cc1-c1cn2cccc(F)c2n1 [Compound 501, 7-(1,4-diazabicyclo[3.2.2]non-4-yl)-3-(8-fluoroimidazo[1,2-a]pyridin-2-yl)-2H-chromen-2-one] | 175 to 178 °C |  |  | ** (fold increase between >1.2 and ≤1.35) | 0.1 to 0.3 |  |  |
| C[C@@H]1CN(c2ccc3cc(-c4nc(C(F)(F)F)cs4)c(=O)oc3c2)CCN1 [Compound 240, 7-[(3R)-3-methylpiperazin-1-yl]-3-[4-(trifluoromethyl)-1,3-thiazol-2-yl]-2H-chromen-2-one] | 234 to 238 °C | 1 to 3 |  | * (maximum fold increase of ≤1.2) |  |  |  |
| CC(C)NCc1ccc2cc(-c3nc4ccccc4s3)c(=O)oc2c1 [Compound 8, 3-(1,3-benzothiazol-2-yl)-7-[(propan-2-ylamino)methyl]-2H-chromen-2-one] | 164 to 168 °C | 1 to 3 |  | * (maximum fold increase of ≤1.2) |  |  |  |
| CNCCCc1ccc2cc(-c3cn4cc(C)nc(C)c4n3)c(=O)oc2c1 [Compound 912, 3-(6,8-dimethylimidazo[1,2-a]pyrazin-2-yl)-7-[3-(methylamino)propyl]-2H-chromen-2-one] | 197 to 201 °C | < 0.1 | < 300 | **** (fold increase between >1.5 and ≤1.65) |  |  |  |
| Cl.O=c1oc2cc(N3CCNCC3)ccc2cc1-c1nc2c(I)cccc2o1 [Compound 67, 3-(4-iodo-1,3-benzoxazol-2-yl)-7-(piperazin-1-yl)-2H-chromen-2-one hydrochloride] | 280 to 285 °C | 0.3 to 1 |  | * (maximum fold increase of ≤1.2) |  |  |  |
| O=c1oc2cc(N3CCNCC3)ccc2cc1-c1cccnc1 [Compound 12, 7-(piperazin-1-yl)-3-(pyridin-3-yl)-2H-chromen-2-one] | 170 to 172 °C |  |  | * (maximum fold increase of ≤1.2) | 3 to 30 |  |  |
| C[C@@H]1CN(c2ccc3cc(-c4nc5c(F)cccc5o4)c(=O)oc3c2)C[C@H](C)N1 [Compound 39, 7-[(3R,5S)-3,5-dimethylpiperazin-1-yl]-3-(4-fluoro-1,3-benzoxazol-2-yl)-2H-chromen-2-one] | 242 to 243 °C | 0.3 to 1 | 3000 to 10000 | *** (fold increase between >1.35 and ≤1.5) |  |  |  |

Second part, led by results:

| melting point | SMILES | EC (1.5-fold) [1, 2] [µM] | EC1.5x (concentration giving 1.5-fold Smn protein increase) (Smn protein; [3]) [nM] | maximum fold (Fold) increase of Smn protein (Smn protein; [4]) | EC (1.5-fold) ([1]; 24 h) [µM] | maximum fold (Fold) increase of Smn protein (Smn protein) | EC1.5x (concentration giving 1.5-fold Smn protein increase) (Smn protein) [nM] |
| --- | --- | --- | --- | --- | --- | --- | --- |
| 190 to 193 °C | C[C@H]1CN(c2ccc3cc(-c4cn5cccc(F)c5n4)c(=O)oc3c2)CCN1 [Compound 525, 3-(8-fluoroimidazo[1,2-a]pyridin-2-yl)-7-[(3S)-3-methylpiperazin-1-yl]-2H-chromen-2-one] | 0.1 to 0.3 |  | *** (fold increase between >1.35 and ≤1.5) |  |  |  |
| 250 to 260 °C | Cc1cn2cc(-c3cc4ccc(N5C[C@H]6CNC[C@H]6C5)cc4oc3=O)nc2c(C)n1 [Compound 686, 3-(6,8-dimethylimidazo[1,2-a]pyrazin-2-yl)-7-[(3aR,6aS)-hexahydropyrrolo[3,4-c]pyrrol-2(1H)-yl]-2H-chromen-2-one] | < 0.1 | < 300 | ***** (fold increase >1.65) |  |  |  |
| 180 to 183 °C | Cc1cn2cc(-c3cc4ccc(N5CCC(N(C)C)C5)cc4oc3=O)nc2s1 (stereo not drawn) [Compound 154, 7-[3-(dimethylamino)pyrrolidin-1-yl]-3-(2-methylimidazo[2,1-b][1,3]thiazol-6-yl)-2H-chromen-2-one] | 3 to 30 |  | * (maximum fold increase of ≤1.2) |  |  |  |
| 299 °C (dec.) | Cc1cccn2cc(-c3cc4ccc(N5CCN[C@H](C)C5)cc4oc3=O)nc12 [Compound 247, 3-(8-methylimidazo[1,2-a]pyridin-2-yl)-7-[(3R)-3-methylpiperazin-1-yl]-2H-chromen-2-one] | 0.1 to 0.3 |  | ** (fold increase between >1.2 and ≤1.35) |  |  |  |
| 184 to 186 °C | Cc1nccn2cc(-c3cc4ccc(N5CCN[C@@H](C)C5)cc4oc3=O)cc12 [Compound 566, 7-[(3S)-3-methylpiperazin-1-yl]-3-(1-methylpyrrolo[1,2-a]pyrazin-7-yl)-2H-chromen-2-one] | < 0.1 | < 300 | **** (fold increase between >1.5 and ≤1.65) |  |  |  |
| 249 to 250 °C | Cc1cn2cc(-c3cc4ccc(N5C[C@@H](C)N[C@@H](C)C5)cc4oc3=O)nc2cn1 [Compound 476, 7-[(3R,5S)-3,5-dimethylpiperazin-1-yl]-3-(6-methylimidazo[1,2-a]pyrazin-2-yl)-2H-chromen-2-one] | < 0.1 | < 300 | ***** (fold increase >1.65) |  |  |  |
| 160 to 164 °C | Cc1cn2cc(-c3cc4ccc(N5CCN(CCO)CC5)cc4oc3=O)cc2c(C)n1 [Compound 685, 3-(1,3-dimethylpyrrolo[1,2-a]pyrazin-7-yl)-7-[4-(2-hydroxyethyl)piperazin-1-yl]-2H-chromen-2-one] | < 0.1 | < 300 | **** (fold increase between >1.5 and ≤1.65) |  |  |  |
| 186 to 189 °C | CN1CCCN(c2ccc3cc(-c4cn5cc(Cl)ccc5n4)c(=O)oc3c2)CC1 [Compound 92, 3-(6-chloroimidazo[1,2-a]pyridin-2-yl)-7-(4-methyl-1,4-diazepan-1-yl)-2H-chromen-2-one] | 1 to 3 |  | *** (fold increase between >1.35 and ≤1.5) |  |  |  |
